{"source": "patent US20100310542A1", "about": "“Pharmaceutical Compositions for treating wouds and related methods” (HEALOR LTD., priority 2007, published 2010)", "key": {"keratin 1": {"system": "keratin 1", "assay": "keratin 1 expression by Western blot in keratinocytes", "assay_type": "cell-based, mice", "conditions": "visfatin 0.0001 μg/ml or L-alpha 100 ng/ml, 24 hours after calcium-induced differentiation", "description": "Medium A and B are both EMEM eagle's minimal essential medium from Biological Industries (Israel) containing 8% CHELEX™ treated fetal bovine serum. CHELEX™ is a strong chelator which binds free Ca^2+ and Mg^2+ ions to prevent these ions from being bioavailable to the cultured cells.\nPrimary skin keratinocytes isolated from the tails of adult mice (7-10 months up to 2 years) were maintained in medium A (MEM) as described above. After 5 days in (medium A), the growth medium in half of the cultured plates was replaced with medium B (as described above)\nNext visfatin or L-alpha were each individually added to cells cultured in medium A (FIG. 19A) and cells cultured in medium B (FIG. 19B) as indicated in FIG. 19. The final concentration in the culture medium of visfatin was 0.0001 μg/ml visfatin. The final concentration in the culture medium of L-alpha was 100 ng/ml.\nCell differentiation was induced by elevating calcium from 0.05 mM to 0.12 mM as described above. Twenty-four (24) hours after differentiation cells were harvested and Western Blot analysis was performed. […] Keratin 1 expression was then quantified using standard densitometric methods […]\nCell differentiation was then induced by elevating calcium levels in the culture medium from 0.05 mM to 0.12 mM. […] Expression was assessed using standard Western blotting and densitometry techniques."}, "[1]": {"system": "full thickness skin incisions", "assay": "severe inflammatory burden at incision wounds in mice", "assay_type": "in vivo, C57BL/6J mice", "conditions": "peptide 1 μM daily, 7 days", "description": "Full thickness (20 mm long) skin incisions were performed on the upper back of anesthetized C57BL/6J mice (6 mice per group). Following incisions, wounds were treated daily with Myr-pseudosubstrate PKCα peptide, 1 μM applied directly on the wounds in the various formulations (Formulation A-C) described above.\n(§1) After 7 days, wounds were excised and subjected to histology and immunohistochemistry. Inflammatory burden was considered severe when at least 2 of the 3 following parameters were present at the wound gap: (1) Abscess formation at the wounded area, (2) excessive leukocytosis (>100 cells in a fixed field×200), (3) high WBC/RBC ratio in blood vessels where >20% of WBC content within the blood vessels is shown in a fixed field (×200). Results are summarized and presented as percent of wounds with severe inflammation relative to the number of wounds in the group.\nas §1, with “Full thickness (20 mm long) skin incisions were performed on the upper back of anesthetized C57BL/6J mice (6 mice per group). Following incision, wounds were treated daily with PKCα inhibitor (Pseudosubstrate PKCα peptide, 1 μM) applied directly to the wounds in the various formulations (Formulation A-C) described above. After” for “After”, “per total” for “relative to the number of”"}, "PKCα": {"system": "PKCα", "assay": "PKCα activity assay in keratinocytes overexpressing PKCα", "assay_type": "cell-based, murine", "conditions": "Formulation A; peptide 1 μM for 15 minutes; PKCα overexpressing cells; relative to controls", "description": "Transduction of keratinocytes with PKC isoform genes: The culture medium was aspirated and keratinocyte cultures were infected with PKC recombinant adenoviruses encoding specific PKC isoforms such as PKCα for one hour. The cultures were then washed twice with MEM and re-fed. Ten hours post-infection cells were transferred to serum-free low Ca^2+-containing MEM for 24 hours.\nPKC activity: Specific PKC activity was determined in freshly prepared immunoprecipitates from keratinocyte cultures following appropriate treatments. These lysates were prepared in RIPA buffer without NaF. Activity was measured using the SignaTECT Protein Kinase C Assay System (Promega, Madison, Wis., USA) according to the manufacturer's instructions. PKCα pseudosubstrate was used as the substrate in these studies.\nPKC immunokinase assay: Purified and standardized PKC isozymes were kindly supplied by Dr. P. Blumberg (NCl, NIH, U.S.) and Dr. Marcello G. Kazanietz (University of Pennsylvania, School of Medicine). Primary keratinocytes were harvested in 500 μl […] (1% Triton-X 100, 10 μg/ml aprotinin and leupeptin, 2 μg/ml pepstatin, 1 mM PMSF, 1 mM EDTA, 200 μM […], 10 mM NaF in 1×PBS). Lysates were incubated at 4° C. for 30 minutes, and spun at 16,000×g for 30 minutes at 4° C. Supernatants were transferred to a fresh tube. […]"}, "[2]": {"system": "full thickness skin incisions", "assay": "incision wound healing in mice, percent of healed wounds", "assay_type": "in vivo, C57BL/6J mice", "conditions": "agent alone, all formulations (A-C); daily, 7 days; vs groups treated with formulations alone; listed as pseudosubstrate peptide", "description": "In vivo incision wound generation and inducement of inflammation: Full thickness (20 mm long) skin incisions were performed on the upper back of anesthetized C57BL/6J mice (6 mice per group). […] the incision, wounds were treated daily with insulin (10^−6 M; 0.1 units/ml); pseudosubstrate PKCα peptide, 1 μM (PKCα inhibitor); or Insulin+PKCα inhibitor (Myr-pseudosubstrate PKCα peptide, 1 μM and insulin 0.1 units) applied directly on the wounds in the various formulations (Formulations A-C) as described above. After 7 days, wounds were excised and the percentage of healed wounds was evaluated by examining the morphology and histology of the wounds. Results are presented as percent of healed wounds relative to the total number of wounds per group. […] Full thickness (20 mm long) skin incisions were performed on the upper back of anesthetized C57BL/6J mice (6 mice per group). […] After 7 days, wounds were excised and the percentage of healed wounds was evaluated by examining the morphology and histology of the wounds. […]"}}, "note": "* marks the point of attachment. Myristoyl = CCCCCCCCCCCCCC(=O)*", "data": [{"compound": "CCCCCCCCCCCCCCCC(=O)OC[C@H](COP(=O)(O)OC1C(O)C(OP(=O)(O)O)C(OP(=O)(O)O)C(OP(=O)(O)O)C1O)OC(=O)CCCCCCCCCCCCCCC.N.N.N.N.N.N.N", "note": "(stereo partly drawn) [L-alpha, L-α-Phosphatidylinositol-3,4,5-trisphosphate, Dipalmitoyl-, Heptaammonium Salt]", "values": [{"measurement": "expression of keratin 1", "setting": "keratin 1; medium A (no KCl)", "value": "decreased relative to the control sample"}, {"measurement": "expression of keratin 1", "setting": "keratin 1; medium B (KCl 0.4 mg/ml)", "value": "not significantly altered"}]}, {"compound": "Myr*-Phe-Ala-Arg-Lys-Gly-Ala-Leu-Arg-Gln-OH (Myristoyl-FARKGALRQ-OH; SMILES CCCCCCCCCCCCCC(=O)N[C@@H](Cc1ccccc1)C(=O)N[C@@H](C)C(=O)N[C@@H](CCCNC(=N)N)C(=O)N[C@@H](CCCCN)C(=O)NCC(=O)N[C@@H](C)C(=O)N[C@@H](CC(C)C)C(=O)N[C@@H](CCCNC(=N)N)C(=O)N[C@@H](CCC(N)=O)C(=O)O) [PKCα inhibitor, myristoylated peptide corresponding to the pseudosubstrate region of PKCα, CAS 147217-25-2]", "values": [{"measurement": "severe inflammation (percent of wounds with severe inflammation)", "setting": "[1]; Formulation A", "value": "significant reduction in severe inflammation"}, {"measurement": "severe inflammation (percent of wounds with severe inflammation)", "setting": "[1]; Formulation B", "value": "No reduction in inflammatory burden"}, {"measurement": "severe inflammation (percent of wounds with severe inflammation)", "setting": "[1]; Formulation C", "value": "No reduction in inflammatory burden"}, {"measurement": "inhibition of PKCα activity", "setting": "PKCα", "value": "able to significantly inhibit PKCα activity"}, {"measurement": "healing of wounds (percent of healed wounds)", "setting": "[2]", "value": "did not promote wound healing efficacy"}]}]}
